# Experimental data: PubChem BioAssay AID857 (Vanderbilt High Throughput Screening Facility, 2007)
# Active and inactive are the calls of the source.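 The calls were made as follows: active = a full or partial dose-response curve in at least two of three replicate runs; inactive = the rest.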
# Biological target: D(1B) dopamine receptor (Homo sapiens) (UniProt P21918)
# Experiment: dopamine D5 receptor modulation at EC30 dopamine, dose response, selectivity assay for D1 allosteric modulator project, cell-based, HEK293, CRE-luciferase, luminescence (AID 857);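 also: HEK 293 cells expressing human D5 with a CRE-driven luciferase reporter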
# D(1B) dopamine receptor (Homo sapiens), sequence (P21918 whole entry, looked up): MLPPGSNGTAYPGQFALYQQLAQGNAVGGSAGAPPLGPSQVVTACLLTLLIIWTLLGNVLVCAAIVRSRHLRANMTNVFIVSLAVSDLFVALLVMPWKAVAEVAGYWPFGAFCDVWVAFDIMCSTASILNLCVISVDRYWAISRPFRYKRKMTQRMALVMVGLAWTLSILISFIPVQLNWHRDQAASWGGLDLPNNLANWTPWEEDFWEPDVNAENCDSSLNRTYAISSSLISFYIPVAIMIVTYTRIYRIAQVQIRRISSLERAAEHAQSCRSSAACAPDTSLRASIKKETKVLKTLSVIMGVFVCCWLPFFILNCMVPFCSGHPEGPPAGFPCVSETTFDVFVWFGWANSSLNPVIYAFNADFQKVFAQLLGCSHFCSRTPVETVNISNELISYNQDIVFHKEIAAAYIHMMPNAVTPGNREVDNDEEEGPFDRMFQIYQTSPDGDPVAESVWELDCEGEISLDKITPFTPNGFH
SMILES,outcome,EC50 [nM]
C/C(CCc1oc2ccccc2c1-c1ccc(C)o1)=N/O,inactive,
CCCCNC(=O)c1ccc2nc(-c3ccco3)c(-c3ccco3)nc2c1,inactive,
Cc1noc(C)c1S(=O)(=O)N1CCCC(C(=O)NCc2ccccn2)C1 (stereo not given),inactive,
Cc1nc(N2CCC(C(N)=O)CC2)c2nnn(Cc3ccccc3)c2n1,inactive,
COc1nc(NCc2ccc(Cl)cc2)nc(OC)n1,inactive,
Cc1ccc(S(=O)(=O)N2CCN(C(=O)COC(=O)c3cc(C)oc3C)CC2)cc1,inactive,
Clc1cccc(Nc2c3c(nc4ncnn24)CCC3)c1,inactive,
CCCCN(CC)C(=O)c1ccc(Cl)c(Cl)c1,inactive,
CCc1nc(N)c(C#N)c(-c2ccncc2)c1C,inactive,
CSc1ccc(C2C(C#N)=C(N)N(c3ccccc3)C3=C2C(=O)CCC3)cc1 (stereo not given),inactive,
Cc1c(-c2ccccc2)nc(N)c(C#N)c1-c1ccco1,,2010
Cn1c(Cn2c(=O)sc3ccccc32)nnc1SCC(=O)N1CCOCC1,inactive,
C/C=C/Cn1c(SCCCc2ccccc2)nc2c1c(=O)[nH]c(=O)n2C,inactive,
O=C(NCc1cccs1)C1CC(c2ccccc2O)=NO1 (stereo not given),inactive,
COc1ccc2[nH]c(=O)c(CN(Cc3cccs3)Cc3nnnn3C(C)(C)C)cc2c1,inactive,
CSc1nc2c(c(=O)n1-c1ccccc1)SCC2,inactive,
COC(=O)/C(=C1/Oc2cc3c(cc2S1)OCO3)C(F)(F)F,inactive,
CC(C)OC(=O)CSc1nnc(-c2cnccn2)n1-c1ccc(Cl)cc1,inactive,
O=C(NCc1ccco1)c1cnn2c(C(F)(F)F)cc(-c3ccco3)nc12,inactive,
Cc1ccc(-c2nc3ncccn3c2NC(=O)C2CC2)cc1,inactive,
CCOC(=O)c1cc2c(=O)n3ccccc3nc2n(CCCOC)c1=NC(=O)c1cccnc1,inactive,
COc1c(S(=O)(=O)n2nc(C)cc2C)ccc(Cl)c1Cl,inactive,
COc1ccc(Cl)cc1C(=O)CSc1nnnn1C1CCCC1,,661
CCN(CC)c1nc(N)c2c(N)nc3c(c2c1C#N)CC(c1ccccc1)O3 (stereo not given),inactive,
CCOC(=O)CN(C(=O)CSc1nnc(-c2ccc(OC)c(OC)c2)o1)c1ccc(F)cc1,inactive,
COc1nc(C)ccc1-c1noc(-c2ccncc2)n1,inactive,
COc1ccc2c(C(F)(F)F)cc(=O)oc2c1C,inactive,

SMILES,outcome,EC50 [nM]
COCCNC(=O)c1c(NC(=O)c2ccco2)n(Cc2ccccc2)c2nc3ccccc3nc12,inactive,
COc1cc2c(cc1OC)C(C(=O)Nc1ccc3c(c1)OCCO3)C1c3ccccc3CCN1C2=O (stereo not given),inactive,
CCC1(CC)C(=O)NC(=NCCc2c[nH]c3ccccc23)NC1=O,inactive,
CCOc1ccc(-c2nnn(CC(=O)NCc3ccc(OC)cc3)n2)cc1OCC,,473
CC(C)OC(=O)CSc1nnc(-c2cnccn2)n1-c1ccccc1,inactive,
O=C1COc2ccc(C(=O)c3ccccc3)cc2CN1,inactive,
C=CCn1c(=O)c2c(C)c(C)sc2n2c(Nc3ccc(OC)cc3)nnc12,inactive,
CCCc1nc2sc3ccccc3c(=O)c2c(=O)n1Cc1ccco1,inactive,
COc1ccc(OC)c(C(=O)COC(=O)C2CC3CCCC(C2)C3=O)c1 (stereo not given),inactive,
c1ccc(-c2nn3c(-c4ccccc4)nnc3s2)cc1,inactive,
CSc1oc(-c2ccco2)nc1S(=O)(=O)c1ccc(F)cc1,inactive,
O=CN1Cc2[nH]c3ccccc3c2N(c2ccc(Cl)cc2)C1=O,inactive,
N#CC1=C(N)Oc2n[nH]c(-c3cccs3)c2C1c1ccsc1 (stereo not given),inactive,
Cc1cc(O)c(C=Nc2cccc(Cl)c2)c(=O)o1,inactive,
O=C(c1cccn2c(=O)c3cc(Cl)ccc3nc12)N1CCN(Cc2ccc3c(c2)OCO3)CC1,inactive,
CCOC(=O)C1=C(C)Nc2nc(SC)nn2C1c1ccc(C(=O)OC)cc1 (stereo not given),inactive,
CSc1nc2oc3c(c2c2nncn12)CC(C)(C)SC3,inactive,
CCC(C)Sc1nc2c(c(=O)n1C)SC(C)C2 (stereo not given),inactive,
N#Cc1cn(-c2ccccc2)nc1-c1ccccc1,inactive,
CCOC(=O)CSc1nc2c(sc(=S)n2Cc2ccco2)c(=O)n1-c1ccccc1,inactive,
Cc1cc(Br)c2c(c1)=C(c1sc(N3CCCCCC3)nc1O)C(=O)N=2,,1030
COc1ccc(C2CC(c3ccc(Cl)cc3Cl)Nc3nc(N)nn32)cc1 (stereo not given),inactive,
Cc1ccc(-n2cnnn2)c2cccnc12,inactive,
Cc1oc2ccc(OCC(N)=O)cc2c1C(=O)OC(C)C,inactive,
CCc1ccc(C2=Nn3c(nnc3-c3cccs3)SC2)cc1,inactive,
CCn1nc(C(=O)NC2=NCCS2)c2ccccc2c1=O,inactive,
CC(C)Cc1nc(N2CCN(C(=O)C(C)C)CC2)c(C#N)c2c1CCC2,inactive,

SMILES,outcome,EC50 [nM]
CCOC(=O)c1c(C)c(C(=O)NCc2ccccc2OC)c(C)n1C,inactive,
Cn1cccc1C1NC(=O)c2c(sc3c2CCC(C(C)(C)C)C3)N1 (stereo not given),inactive,
COC(=O)c1ccccc1NC(=O)COc1ccc(S(=O)(=O)N2CCCC2)cc1C,inactive,
Fc1ccc(-c2cc(C(F)(F)F)nc(-n3cncn3)n2)cc1,inactive,
OCCn1nc2c3ccccc3nc-2n(-c2ccccc2)c1=S,inactive,
CCSc1nc2c(c(=O)n1CC)SC(C)C2 (stereo not given),inactive,
COCCNc1oc(-c2ccc(C)cc2)nc1C#N,inactive,
CCc1nc2ccccc2c(C(=O)OCC(=O)NCc2ccco2)c1C,inactive,
C=CCSc1nnc2n(-c3ccccc3OC)c(=O)c3c4c(sc3n12)CCC4,inactive,
Cc1c(C(=O)OCC(C)C)[nH]c2c1C(=O)CC(c1ccco1)C2 (stereo not given),,1750
CCn1c(SCC(=O)Nc2ccccc2N2CCCCC2)nc2c1c(=O)n(C)c(=O)n2C,inactive,
CCOC(=O)c1c(NC(=O)CSc2nnc(CN3CCOCC3)n2C)sc2c1CCCC2,inactive,
CC(=O)c1cc(C#N)c(SCc2ccncc2)nc1C,inactive,
COc1ccc(-c2nnc(-c3ccc(Br)o3)o2)cc1OC,inactive,
CCOC(=O)C1CCCN(c2nc3ccccc3nc2C(C#N)C(=O)OCC)C1 (stereo not given),inactive,
COc1ccc(C2CC(c3cc(OC)ccc3OC)n3nnnc3N2)cc1 (stereo not given),inactive,
COc1ccc(OC)c(/C=N/c2oc(-c3ccco3)c(-c3ccco3)c2C#N)c1,inactive,
CCCCSc1nc2c(cnn2-c2ccc(F)cc2)c(=O)[nH]1,inactive,
Cc1ccc(CCNS(=O)(=O)c2cnc[nH]2)cc1,inactive,
Cc1nc2ccc(CCO)cc2s1,inactive,
c1ccc(C2CC(c3ccccc3)n3ncnc3N2)cc1 (stereo not given),inactive,
Nc1nc(SCc2ccc3c(c2)OCCO3)n[nH]1,inactive,
COCc1cc(C)nc2sc(C(=O)N3CCN(c4ccccc4)CC3)c(N)c12,,212
COc1cc2[nH]c(=S)n(C3CCCC3)c(=O)c2cc1OC,inactive,
NC(=O)c1cc(-c2ccccc2)nc(N2CCCCCC2)n1,inactive,
CCOC(=O)c1nn(-c2ccc(OC)cc2)c(=O)c2c(N)scc12,inactive,
